For series [1] the following is noted: PEG3350 0% v/v; cited from earlier work.
A further series deals with L929 cells. Further details: method as in PMID 25160057. As to conditions: compound alone, read-out: L929 LC50; cited from earlier work.
The next series concerns the target T1, RANKL (Homo sapiens, UniProt O14788).
T1 sequence (O14788 143-317): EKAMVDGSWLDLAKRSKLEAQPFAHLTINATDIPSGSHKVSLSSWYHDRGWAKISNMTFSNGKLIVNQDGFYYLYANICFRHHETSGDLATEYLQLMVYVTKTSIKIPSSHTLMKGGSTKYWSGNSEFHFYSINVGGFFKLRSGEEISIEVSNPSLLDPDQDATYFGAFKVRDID
As to the kind of experiment: Fluorescence-based binding affinity assay, RANKL. As for the experimental part:
For use in the binding assays, recombinant TNF and RANKL were expressed and purified as previously described.[84–86] Fluorescence intensity was measure with a Synergy H1 Multi-Mode Reader (BioTek) in 96-well microplates (black) at 25°C. […] During preparation of the solutions the buffer was firstly added to all wells followed by the ligand solution and finally the protein was added. All solutions were mixed by pipetting and equilibrated for 1h at 25°C before measurement. […] Experiments were performed for TNF in 10 mM citrate-phosphate (pH 6.5) and for RANKL in 25 mM Tris–HCl buffer, 100 mM NaCl (pH 7.5); both buffers were supplemented with PEG3350 at the concentrations indicated in the respective figures. Kd values were calculated as mean ± SEM from three independent experiments.
Differences in fluorescence intensity between the protein/ligand complex and free protein (or free ligand) were analysed as previously described in [Papaneophytou et al. (2013) ACS Med Chem Lett. 4: 137-141] (Eq. S6) in order to determine the dissociation constant (Kd) of the various protein-ligand systems.
In Eq. (S6) Fobs is the observed fluorescence intensity; FBG is the fluorescence background signal; MFLF [picture] and PF are the molar fluorescence and concentration of free protein, respectively; FR is the fluorescence ratio of bound protein (or bound ligand in the case of a fluorescence ligand); LT and PT are the total concentrations of ligand and protein, respectively. A detailed analysis of the development of the fluorescence ligand-binding assay is given in [Papaneophytou et al. (2013) ACS Med Chem Lett. 4: 137-141].

Series [2] is described as follows: Solubility with PEG3350 as co-solvent. Type of series: physicochemical. As to conditions: PEG3350 2.5% v/v. The source says:
PEG3350 was used as co-solvent in order to enhance inhibitors solubility and thus eliminate the possibility of aggregates formation. | column: Solubility (μM)

Series [3] concerns the molecule itself. Kind of series: cross-linking; 100 ng recombinant human TNF or RANKL, with or without inhibitors (30 min, room temperature), cross-linked with 4.8 mM BS3 for 30 min at room temperature; SDS-PAGE and western blot. On the technique in general: A western blot detects proteins with antibodies after separation by electrophoresis.

Values after ≈ are worked out from the molar mass of the structure shown. Like-named read-outs stand apart in the source and are kept apart here. Marks after values point to notes of the source that are not given here.

Broadly, the solubility is the dissolved amount per volume that the medium holds. Usually Kd stands for the free concentration of one partner at which half of the binding sites on the other are occupied at equilibrium, for simple one-to-one binding. Broadly, the stoichiometry N is a count of units in the complex or per binding partner.

On to `Cc1cc2occ(CN(C)CCN(C)Cc3cn(-c4cccc(C(F)(F)F)c4)c4ccccc34)c(=O)c2cc1C` [SPD304, InChI = 1S/C32H32F3N3O2/c1-21-14-28-30(15-22(21)2)40-20-24(31(28)39)18-37(4)13-12-36(3)17-23-19-38(29-11-6-5-10-27(23)29)26-9-7-8-25(16–26)32(33,34)35/h5-11,14–16,19-20H,12–13,17-18H2,1-4H3, reference compound], for which the solubility in series [1] is listed as 10^b μM; in series [2] it was 71 µM (≈ 38.9 µg/mL). The CC50 in the series with L929 cells was 7.5 ± 0.2 µM. The Kd on RANKL (RANKL 0.5 μM, PEG3350 2.5%, 25 mM Tri-HCl, 100 mM NaCl pH 7.5, read-out: Binding affinity (Kd), RANKL) is 14.2 ± 0.68 µM; on RANKL (RANKL 0.5 μM, PEG3350 5%, 25 mM Tri-HCl, 100 mM NaCl pH 7.5, read-out: Binding affinity (Kd), RANKL), 13.8 ± 0.73 µM; at RANKL (fluorescence assay, 25°C, 25 mM Tris-HCl, 100 mM NaCl, pH 7.5, 5% PEG3350, read-out: Kd (RANKL complexes)), 13.8 ± 0.7 µM.

B1: recombinant human RANKL (Receptor activator of nuclear factor kappa-B ligand) (ligand, UniProt O14788 140-317, looked up)
chain: IRAEKAMVDGSWLDLAKRSKLEAQPFAHLTINATDIPSGSHKVSLSSWYHDRGWAKISNMTFSNGKLIVNQDGFYYLYANICFRHHETSGDLATEYLQLMVYVTKTSIKIPSSHTLMKGGSTKYWSGNSEFHFYSINVGGFFKLRSGEEISIEVSNPSLLDPDQDATYFGAFKVRDID
notes: source: bought: Peprotech
With B1, in series [3], the “stoichiometry N” value worked out at 3.

These data come from paper PMC5398486, “Cheminformatics-aided discovery of small-molecule Protein-Protein Interaction (PPI) dual inhibitors of Tumor Necrosis Factor (TNF) and Receptor Activator of NF-κB Ligand (RANKL)” (PLoS Computational Biology, 2017).
